pIC50: −log10 of the molar value. Values after ≈ are worked out from the molar mass of the structure shown. Counter-ions that a name gives are not always drawn. Like-named read-outs stand apart in the source and are kept apart here.
What was measured:
[1] = biological target: Rabbit Reticulocyte Lysate (eukaryotic protein synthesis); assay: Rabbit Reticulocyte Lysate: inhibition of eukaryotic protein synthesis (luciferase); type: biochemical; settings: 30° C. for 90 minutes, read-out: retic. IC50
Procedure: Inhibition of eukaryotic protein synthesis was determined using the Rabbit Reticulocyte Lysate System, Nuclease-Treated from Promega (catalog #L-4960) with slight modifications to the manufacturer’s protocol. Compounds were serial diluted in 0.5 mL microcentrifuge tubes by mixing and transferring 50 µL from the highest concentration to 50 µL of water, mixing and transferring 50 µL of this 2-fold dilution to 50 µL of water. This mixing and transferring was repeated so that there are a total of 8 tubes with serial dilutions of compound at 10× the desired screening concentration that are ultimately diluted to 1× by the addition of rabbit reticulocyte luciferase synthesis mixture. Serial dilutions of compounds were added (2.5 µL) to wells in a black round bottom 96-well plate. Water (2.5 µL) was used as a “no inhibitor” control in 4 wells/plate. No RNA control reaction mixture (2 µL; see below) was used as a control in 4 wells/plate for background luminescence. Rabbit reticulocyte luciferase synthesis mixture (22.5 µL; see below) was added to wells with compounds or water mixture and incubated at 30° C. for 90 minutes. Luciferase assay reagent (25 µL) was added with luminescence measured using a BioTek Synergy HTX plate reader. % Inhibition was determined relative to no inhibitor controls.
Rabbit reticulocyte luciferase synthesis mixture: • 1,000 µL rabbit reticulocyte lysate • 5.7 µL Luciferase Control RNA (1 µg/ µL) • 26 µL complete amino acid mixture • 395 µL water
No RNA Control • 70 µL rabbit reticulocyte lysate • 2 µL complete amino acid mixture • 28 µL water

S.aureus (Sa) = assay: Broth microdilution MIC against S.aureus (Sa); type: cell-based; settings: Staphylococcus aureus
Procedure: (§1) A certified BSL-2 laboratory was used for testing. Compounds were evaluated using the broth microdilution minimum inhibitory concentration (MIC) and minimum bactericidal concentration (MBC) assays defined by Clinical and Laboratory Standards Institute (CLSI) in the M26-A guideline against S.aureus (Sa), E.coli (Ec), K.pneumoniae (Kp), A.baumannii (Ab), E.faecalis (Ef) and P.aeruginosa (Pa).
(§2) MICs were determined using the Clinical Laboratory and Standards Institute (CLSI) Broth Microdilution Method with slight modification. Clinical and Laboratory Standards Institute (2012). “Methods for dilution antimicrobial susceptibility tests for bacteria that grow aerobically; approved standard, 9th ed. M07-A9. Clinical and Laboratory Standards Institute, Wayne, PA.” Serial two-fold dilutions of compounds are prepared in sterile clear roundbottom 96-well plates.
(§3) To prepare microdilution trays, two-fold dilutions of antimicrobial agent are prepared in growth medium: Cation-Adjusted Mueller-Hinton Broth (CAMHB), or CAMHB supplemented with sodium bicarbonate (6.25 or 25 mM final concentration prepared from a 1.0 M stock solution) or CAMHB supplemented with heat inactivated human serum (Fisher Cat. # BP2657100) 0-50% by adding 200 µL of the highest concentration to be tested (64 µg/mL, for example) in row A, mixing and transferring 100 µL from row A to 100 µL growth medium in row B, then repeating the mixing and transferring through row H of the 96-well plate, discarding the excess 100 µL remaining. This slight modification to the CLSI protocol enables evaluation of MICs for 3 compounds per plate in triplicate, albeit with only 8 compound dilutions (CLSI protocol enables 2 compounds in triplicate with 10 dilutions). Bacterial suspensions are added to a final concentration of 5 × 10^4 CFU/well by adding 5 µL of a 1:10 dilution of a 0.5 McFarland suspension (1 × 10^8 CFU/mL) for each bacterium evaluated. Bacterial suspensions were prepared using the growth method described by CLSI. Well-isolated colonies (3-5 from an agar plate) were selected using a sterile loop and used to inoculate a tube containing 4 mL of CAMHB. The cultures are incubated at 35 ± 2° C. until it achieves or exceeds the turbidity of the 0.5 McFarland standard, determined by measuring A600nm (usually two to six hours). When growth exceeds a 0.5 McFarland standard, the turbidity is adjusted with broth to be equivalent to a 0.5 McFarland standard.

P.aeruginosa (Pa) = assay: Broth microdilution MIC against P.aeruginosa (Pa); type: cell-based; settings: Pseudomonas aeruginosa
Procedure: as §1, §2, §3

E.coli (Ec) = assay: Broth microdilution MIC against E.coli (Ec); type: cell-based; settings: Escherichia coli
Procedure: as §1, §2, §3

[2] = test system: E.coli S30 extract (bacterial protein synthesis); assay: E.coli S30 extract: inhibition of bacterial protein synthesis (luciferase); type: biochemical; settings: 37° C. for 1 hour
Procedure: E.coli S30 extract: Inhibition of bacterial protein synthesis was determined using the E.coli S30 Extract System for Circular DNA (Promega catalog #L-2010) and Luciferase Assay Reagent (Promega catalog #E1500) with slight modifications to a published protocol. Fyfe, C., Sutcliffe, J.A. and Grossman, T.H. (2012) “Development and characterization of a Pseudomonas aeruginosa in vitro coupled transcription-translation assay system for evaluation of translation inhibitors” J. Microbiol. Methods 90(3), 256-261.
Compounds were serial diluted in 0.5 mL microcentrifuge tubes by mixing and transferring 50 µL from the highest concentration to 50 µL of water, mixing and transferring 50 µL of this 2-fold dilution to 50 µL of water. This mixing and transferring was repeated so that there are a total of 8 tubes with serial dilutions of compound at 10× the desired screening concentration that are ultimately diluted to 1× by the addition of S30 luciferase synthesis mixture. Serial dilutions of compounds were added (2 µL) to wells in a black round bottom 96-well plate. Water (2 µL) was used as a “no inhibitor” control in 4 wells/plate. No DNA control reaction mixture (20 µL; see below) was used as a control in 4 wells/plate for background luminescence. S30 luciferase synthesis mixture (18 µL; see below) was added to wells with compounds or water mixture and incubated at 37° C. for 1 hour. Reactions were stopped by transferring to 4° C. refrigerator for 5 minutes then 25 µL of luciferase activity mix was added. Luminescence was measured using a BioTek Synergy HTX plate reader. % Inhibition was determined relative to no inhibitor controls.
S30 luciferase synthesis mixture: • 445 µL S30 extract, circular • 712 µL S30 Premix without amino acids • 4.45 µL pBESTluc™ DNA (1 µg/ µL) • 78 µL complete amino acid mixture • 267 µL water
No DNA control: • 20 µL S30 extract, circular • 32 µL S30 Premix without amino acids • 7 µL complete amino acid mixture • 21 µL water

A.baumannii (Ab) = assay: Broth microdilution MIC against A.baumannii (Ab); type: cell-based; settings: Acinetobacter baumannii
Procedure: as §1, §2, §3

E.faecalis (Ef) = assay: Broth microdilution MIC against E.faecalis (Ef); type: cell-based; settings: Enterococcus faecalis
Procedure: as §1, §2, §3

[3] = CAMHB supplemented with sodium bicarbonate 25 mM, read-out: Sa + bicarb 25 (MIC)
[4] = CAMHB supplemented with sodium bicarbonate 25 mM, read-out: Pa +bicarb 25 (MIC)
[5] = CAMHB supplemented with sodium bicarbonate 25 mM, read-out: E.coli + bicarb 25 (MIC)
[6] = CAMHB supplemented with sodium bicarbonate 25 mM, read-out: Ab +bicarb 25 (MIC)
[7] = CAMHB supplemented with sodium bicarbonate 25 mM, read-out: Ef +bicarb 25 (MIC)
[8] = CAMHB supplemented with sodium bicarbonate 6.25 mM, read-out: Sa + bicarb 6.25 (MIC)
[9] = CAMHB supplemented with sodium bicarbonate 6.25 mM, read-out: Pa +bicarb 6.25 (MIC)
[10] = CAMHB supplemented with sodium bicarbonate 6.25 mM, read-out: E. coli + bicarb 6.25 (MIC)
[11] = CAMHB supplemented with sodium bicarbonate 6.25 mM, read-out: Ab +bicarb 6.25 (MIC)
[12] = CAMHB supplemented with sodium bicarbonate 6.25 mM, read-out: Ef +bicarb 6.25 (MIC)

| Structure (SMILES) | pIC50 [1] | MIC (S.aureus (Sa); [3]) [µg/mL] | MIC (P.aeruginosa (Pa); [4]) [µg/mL] | MIC (E.coli (Ec); [5]) [µg/mL] | pIC50 [2] | MIC (A.baumannii (Ab); [6]) [µg/mL] | MIC (E.faecalis (Ef); [7]) [µg/mL] | MIC (S.aureus (Sa); [8]) [µg/mL] | MIC (P.aeruginosa (Pa); [9]) [µg/mL] | MIC (E.coli (Ec); [10]) [µg/mL] | MIC (A.baumannii (Ab); [11]) [µg/mL] | MIC (E.faecalis (Ef); [12]) [µg/mL] | MIC (S.aureus (Sa); read-out: Sa + bicarb 6.25 (MIC)) [µg/mL] | MIC (P.aeruginosa (Pa); read-out: Pa +bicarb 6.25 (MIC)) [µg/mL] | MIC (E.coli (Ec); read-out: E. coli + bicarb 6.25 (MIC)) [µg/mL] | MIC (A.baumannii (Ab); read-out: Ab +bicarb 6.25 (MIC)) [µg/mL] | MIC (E.faecalis (Ef); read-out: Ef +bicarb 6.25 (MIC)) [µg/mL] |
| --- | --- | --- | --- | --- | --- | --- | --- | --- | --- | --- | --- | --- | --- | --- | --- | --- | --- |
| CN(C1CCc2cc(-n3ccc(NC(=O)N4CCN(C(=O)C(C)(C)N)CC4)nc3=O)ccc2C1)[C@H]1CC[C@H](N)C1 (some centres unmarked) [Compound 19, Hydrochloride Salt] | ≤ 6.00 | < 8 | 8 to 32 | < 8 | > 6.30 | 8 to 32 | < 8 |  |  |  |  |  |  |  |  |  |  |
| CCN(C1CCc2cc(-n3ccc(NC(=O)N4CCN(C(=O)C(C)(C)N)CC4)nc3=O)ccc2C1)[C@H]1CC[C@H](N)C1 (some centres unmarked) [Compound 20] | ≤ 6.00 | < 8 | 8 to 32 (≈ 14.2 to 56.7 µM) | < 8 | > 6.30 | 8 to 32 (≈ 14.2 to 56.7 µM) | < 8 |  |  |  |  |  |  |  |  |  |  |
| CC(C)(N)C(=O)N1CCN(C(=O)Nc2ccn(-c3ccc4c(c3)CCC(N(CC3CC3)[C@H]3CC[C@H](N)C3)C4)c(=O)n2)CC1 (some centres unmarked) [Compound 21] | ≤ 6.00 | < 8 | 8 to 32 (≈ 13.5 to 54.2 µM) | < 8 | > 6.30 | 8 to 32 (≈ 13.5 to 54.2 µM) | < 8 |  |  |  |  |  |  |  |  |  |  |
| CC(C)(N)C(=O)N1CCN(C(=O)Nc2ccn(-c3ccc4c(c3)OCC(N3CCCC(N)CC3)C4)c(=O)n2)CC1 (centres unmarked) [Compound 22] | ≤ 6.00 |  |  |  | 6.00 to 6.30 |  |  | 8 to 32 | > 32 | < 8 | > 32 | > 32 |  |  |  |  |  |
| CC(C)(N)C(=O)N1CCN(C(=O)Nc2ccn(-c3ccc4c(c3)OCC(N3CC5CC5(CN)C3)C4)c(=O)n2)CC1 (centres unmarked) [Compound 23] | ≤ 6.00 |  |  |  | ≤ 6.00 |  |  | > 32 | > 32 | 8 to 32 | > 32 | > 32 |  |  |  |  |  |
| CC(C)(N)C(=O)N1CCN(C(=O)Nc2ccn(-c3ccc4c(c3)CCC(N[C@@H]3CC[C@@H](N)C3)C4)c(=O)n2)CC1 (some centres unmarked) [Compound 25] | ≤ 6.00 |  |  |  | > 6.30 |  |  |  |  |  |  |  | < 8 | > 32 | < 8 | > 32 | > 32 |
| CC(C)(N)C(=O)N1CCN(C(=O)Nc2ccn(-c3ccc4c(c3)CCC(N[C@H]3CC[C@@H](N)C3)C4)c(=O)n2)CC1 (some centres unmarked) [Compound 26] | ≤ 6.00 |  |  |  | > 6.30 |  |  | < 8 | > 32 | < 8 | > 32 | > 32 |  |  |  |  |  |
| CC(C)(N)C(=O)N1CCN(C(=O)Nc2ccn(-c3ccc4c(c3)CCC(N[C@H]3C[C@H](N)C3)C4)c(=O)n2)CC1 (some centres unmarked) [Compound 29] | ≤ 6.00 |  |  |  | > 6.30 |  |  | < 8 | > 32 | < 8 | > 32 | 8 to 32 (≈ 15.3 to 61.2 µM) |  |  |  |  |  |
| CC(C)(N)C(=O)N1CCN(C(=O)Nc2ccn(-c3ccc4c(c3)CCC(N[C@H]3C[C@@H](N)C3)C4)c(=O)n2)CC1 (stereo partly drawn) [Compound 30, 4-Amino-2-Methylpropanoyl)-N-(1-(6-(((Cis-3-Aminocyclobutyl)Amino)-5,6,7,8-Tetrahydronaphthalen-2-Yl)-2-Oxo-1,2-Dihydropyrimidin-4-Yl)Piperazine-1-Carboxamide Hydrochloride Salt] | ≤ 6.00 |  |  |  | > 6.30 |  |  | < 8 | > 32 | < 8 | > 32 | 8 to 32 |  |  |  |  |  |
| CC(C)(N)C(=O)N1CCN(C(=O)Nc2ccn(-c3ccc4c(c3)CCC(NC[C@H]3C[C@H](N)C3)C4)c(=O)n2)CC1 (some centres unmarked) [Compound 31] | ≤ 6.00 |  |  |  | > 6.30 |  |  | < 8 | > 32 | < 8 | > 32 | 8 to 32 (≈ 14.9 to 59.6 µM) |  |  |  |  |  |
| CC(C)(N)C(=O)N1CCN(C(=O)Nc2ccn(-c3ccc4c(c3)CCC(NC[C@H]3C[C@@H](N)C3)C4)c(=O)n2)CC1 (some centres unmarked) [Compound 32] | ≤ 6.00 |  |  |  | > 6.30 |  |  | < 8 | > 32 | < 8 | > 32 | 8 to 32 (≈ 14.9 to 59.6 µM) |  |  |  |  |  |
| CC(C)(N)C(=O)N1CCN(C(=O)Nc2ccn(-c3ccc4c(c3)CCN(C3CCC(N)CC3)C4)c(=O)n2)CC1 (centres unmarked) [Compound 35] | ≤ 6.00 |  |  |  | > 6.30 |  |  | < 8 | > 32 | < 8 | > 32 | > 32 |  |  |  |  |  |
| CC(C)(N)C(=O)N1CCN(C(=O)Nc2ccn(-c3ccc4c(c3)CC(N[C@H]3CC[C@H](N)C3)C4)c(=O)n2)CC1 (some centres unmarked) [Compound 36, Hydrochloride Salt] | > 6.30 |  |  |  | > 6.30 |  |  | 8 to 32 | > 32 | < 8 | > 32 | > 32 |  |  |  |  |  |
| CC(C)(N)C(=O)N1CCN(C(=O)Nc2ccn(-c3ccc4c(c3)CC(NC[C@H]3C[C@H](N)C3)C4)c(=O)n2)CC1 (some centres unmarked) [Compound 37, Hydrochloride Salt] | ≤ 6.00 |  |  |  | > 6.30 |  |  | 8 to 32 | > 32 | < 8 | > 32 | > 32 |  |  |  |  |  |

Reference: patent US20230278987A1, “Antimicrobial Compounds and Methods” (Curza Global, LLC, priority 2019, published 2023)
